{
  "source": "paper PMC12030678",
  "about": "“Investigations of In Vitro Anti-Acetylcholinesterase, Anti-Diabetic, Anti-Inflammatory, and Anti-Cancer Efficacy of Garden Cress (Lepidium sativum Linn.) Seed Extracts, as Well as In Vivo Biochemical and Hematological Assays” (Pharmaceutics, 2025)",
  "key": {"α-amylase enzyme": {"target": "T1, α-amylase enzyme (Sus scrofa, UniProt P00690)", "T1 sequence (P00690 16-511)": "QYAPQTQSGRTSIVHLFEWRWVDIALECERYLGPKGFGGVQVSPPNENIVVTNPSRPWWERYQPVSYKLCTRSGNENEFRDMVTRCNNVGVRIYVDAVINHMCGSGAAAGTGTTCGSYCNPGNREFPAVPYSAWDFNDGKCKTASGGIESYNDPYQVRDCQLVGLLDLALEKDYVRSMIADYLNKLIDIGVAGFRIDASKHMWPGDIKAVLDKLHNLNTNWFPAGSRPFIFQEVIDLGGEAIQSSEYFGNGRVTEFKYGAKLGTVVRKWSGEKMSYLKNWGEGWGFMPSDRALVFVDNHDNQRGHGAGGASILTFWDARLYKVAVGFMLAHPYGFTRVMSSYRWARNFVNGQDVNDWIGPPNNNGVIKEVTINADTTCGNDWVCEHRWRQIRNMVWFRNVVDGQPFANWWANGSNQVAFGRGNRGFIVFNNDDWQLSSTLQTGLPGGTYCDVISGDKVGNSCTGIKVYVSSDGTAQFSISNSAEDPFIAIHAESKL", "assay": "α-Amylase inhibition (DNSA method)", "format": "biochemical", "details": "at 100 µg/mL", "protocol": "Anti-Alzheimer's activity\nIn this study, we assessed the inhibition percentage of the acetylcholinesterase (AChE)\nThis assay involved calculating the inhibition percentage (%) of α-amylase enzyme using\nThe mixture was then left at\ntemperature and diluted with 5 mL of distilled water."}, "α-glucosidase enzyme": {"target": "α-glucosidase enzyme (Saccharomyces cerevisiae, UniProt P53341)", "sequence (P53341 whole entry)": "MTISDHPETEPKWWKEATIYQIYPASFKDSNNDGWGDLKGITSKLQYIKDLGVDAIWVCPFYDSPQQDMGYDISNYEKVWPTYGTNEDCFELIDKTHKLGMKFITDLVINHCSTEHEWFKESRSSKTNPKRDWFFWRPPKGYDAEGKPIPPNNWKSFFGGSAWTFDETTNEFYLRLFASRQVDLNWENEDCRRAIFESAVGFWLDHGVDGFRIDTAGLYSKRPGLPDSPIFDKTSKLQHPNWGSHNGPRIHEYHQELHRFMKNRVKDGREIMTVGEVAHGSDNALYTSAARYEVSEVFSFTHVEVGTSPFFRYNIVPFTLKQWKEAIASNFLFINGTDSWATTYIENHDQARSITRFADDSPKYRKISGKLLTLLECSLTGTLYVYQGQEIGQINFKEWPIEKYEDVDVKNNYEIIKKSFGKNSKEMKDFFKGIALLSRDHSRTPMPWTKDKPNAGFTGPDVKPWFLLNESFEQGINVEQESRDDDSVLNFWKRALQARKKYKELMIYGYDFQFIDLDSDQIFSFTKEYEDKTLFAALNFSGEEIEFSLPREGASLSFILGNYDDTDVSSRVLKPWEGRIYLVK", "assay": "α-Glucosidase inhibition (pNPG)", "format": "biochemical", "details": "at 100 µg/mL"}, "[1]": {"assay": "ABTS radical scavenging activity", "protocol": "(§1) Antioxidant, scavenging, anti-Alzheimer, anti-diabetic, anti-arthritic, anti-inflammatory, cytotoxic, and enzymatic activities were assessed according to the proposed methods detailed in the Supplementary File. All biological activities were assessed in triplicate for all studied extracts. […]\nAn antioxidant substance capable of donating a hydrogen atom to a solution containing DPPH- can reduce the stable free radical, causing the solution to change color from violet to pale yellow. […]\nTwo milliliters of a DPPH […]\nsolution (100 µM) in ethanol were mixed with 2 mL of the sample (at each concentration). […]\nFor the control, 2 mL of ethanol was added instead of the sample and run simultaneously with the test. Ascorbic acid was used at the same concentrations as a positive control. […]\n(7 mM) and potassium persulfate solution (2.4 mM). The working solution was prepared by mixing the two stock solutions in equal quantities and allowing them to react at room temperature in a dark place for 14 hours. The solution was then diluted by mixing 1 mL of ABTS solution with 60 mL of methanol to obtain an absorbance of 0.706 ± 0.01 units at 734 nm using a spectrophotometer. […] The tested samples (at each concentration) were allowed to react with 1 mL of the ABTS solution, and the absorbance was taken at 734 nm after 7 minutes using a spectrophotometer. […]"}, "[2]": {"assay": "Iron reducing power (IRP)", "details": "in vitro iron reducing power"}, "[3]": {"assay": "Total antioxidant capacity (TAC), phosphomolybdenum method", "details": "in vitro total antioxidant capacity"}, "[4]": {"assay": "Nitric oxide (NO) radical scavenging activity", "protocol": "Antioxidant, scavenging, anti-Alzheimer, anti-diabetic, anti-arthritic, anti-inflammatory, cytotoxic, and enzymatic activities were assessed according to the proposed methods detailed in the Supplementary File. All biological activities were assessed in triplicate for all studied extracts."}, "[5]": {"assay": "DPPH radical scavenging activity", "protocol": "as §1\nThe 1,1-Diphenyl-2-picryl-hydrazyl (DPPH) radical scavenging activities were evaluated using the method described by Rahman et al.. An antioxidant substance capable of donating a hydrogen atom to a solution containing DPPH- can reduce the stable free radical, causing the solution to change color from violet to pale yellow. The remaining DPPH- radical was quantified by measuring the intensity of a light-purple colored DPPH methanol solution in the visible range at 518 nm using a spectroscopic method. Two milliliters of a DPPH solution (100 µM) in ethanol were mixed with 2 mL of the sample (at each concentration).\nThe reaction mixture for each concentration was thoroughly vortexed and then incubated in the dark at room temperature for 30 minutes. The absorbance was then measured spectrophotometrically at 518 nm against a blank (ethanol). For the control, 2 mL of ethanol was added instead of the sample and run simultaneously with the test. Ascorbic acid was used at the same concentrations as a positive control. Percent inhibition of the DPPH free radical was calculated. […]"}, "Bcl-2": {"tested_on": "Bcl-2", "format": "cell-based, human", "protocol": "as §1\n(§2) Cytotoxic activity and Enzymatic Assay […]\n(§3) The cells were dispensed in a 96-well sterile […]\n(§4) different concentrations of 10 μL of each compound or doxorubicin (positive control, in DMSO) for 48 h in a serum free medium prior to the MTT assay. […]\nCorporation, following the manufacturer's instructions. Activities of Bcl-2 were measured using the Invitrogen Zymed Bcl-2 ELISA Kit (96 tests) from Invitrogen Corporation, following the manufacturer's instructions."}, "caspase-3": {"tested_on": "caspase-3", "format": "cell-based, human", "protocol": "as §1, §2, §3, §4\nActivities of caspase-3 were measured by enzyme-linked immunosorbent assay (ELISA) using the Invitrogen caspase-3 (Active) (human) ELISA kit (96 tests) from Invitrogen Corporation, following the manufacturer's instructions. […]"}, "Caco-2 cells": {"tested_on": "Caco-2 cells", "assay": "Cytotoxic activity, MTT assay, Caco-2", "format": "cell-based", "details": "Homo sapiens, 48 h, read-out: IC50 (μg/mL) Caco-2", "protocol": "as §1\nCytotoxic activity and Enzymatic Assay\nIt will be assayed against human hepatocellular carcinoma (HepG-2), colon cancer (Caco-2), and lung cancer (A549) cells using 3-(4,5-dimethythiazol-2-yl)-2,5-diphenyl tetrazolium bromide (MTT) assay by determining the optical density (OD) at 570 nm according to the […]\nas §3\ndifferent concentrations of 10 μL of each compound or doxorubicin (positive control, in DMSO) for 48 h in a serum free medium prior to the MTT assay. Subsequently, the media were carefully removed, and 40 μL of MTT (2.5 mg/mL) was added to each well and then incubated for an additional 4 h. Purple formazan dye crystals were solubilized by the addition of 200 μL of DMSO. The absorbance was measured at 570 nm using a SpectraMax Paradigm Multi-Mode microplate reader. The relative cell viability was expressed as the mean percentage of viable cells relative to the untreated control cells. All experiments were conducted in triplicate. Percent of the cell-growth inhibition (%) and the IC50 was calculated using IC50 calculation software. […]"}, "[6]": {"target": "T2, 5-LOX enzyme (human recombinant) (Homo sapiens, UniProt P09917)", "T2 construct": "purchased Sigma-Aldrich 437996", "T2 sequence (P09917 1-674)": "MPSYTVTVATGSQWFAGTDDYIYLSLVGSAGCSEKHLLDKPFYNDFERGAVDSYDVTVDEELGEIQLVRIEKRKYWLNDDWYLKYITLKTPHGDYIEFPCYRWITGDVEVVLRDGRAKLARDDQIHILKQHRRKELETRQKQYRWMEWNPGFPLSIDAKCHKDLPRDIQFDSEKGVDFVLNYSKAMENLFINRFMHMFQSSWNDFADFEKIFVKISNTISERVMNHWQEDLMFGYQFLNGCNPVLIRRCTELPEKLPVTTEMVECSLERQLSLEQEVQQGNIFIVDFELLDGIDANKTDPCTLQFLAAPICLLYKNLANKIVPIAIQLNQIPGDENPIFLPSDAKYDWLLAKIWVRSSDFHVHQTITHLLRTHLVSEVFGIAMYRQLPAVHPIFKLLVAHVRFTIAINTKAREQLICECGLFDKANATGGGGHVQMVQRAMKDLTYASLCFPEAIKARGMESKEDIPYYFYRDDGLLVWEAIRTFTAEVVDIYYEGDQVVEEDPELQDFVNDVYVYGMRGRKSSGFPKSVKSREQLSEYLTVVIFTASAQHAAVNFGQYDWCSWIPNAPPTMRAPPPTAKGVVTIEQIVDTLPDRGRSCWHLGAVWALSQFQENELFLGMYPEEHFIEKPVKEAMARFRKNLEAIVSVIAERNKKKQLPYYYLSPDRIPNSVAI", "assay": "5-Lipoxygenase inhibition assay", "format": "biochemical", "details": "inhibition at 100 µg/mL"}},
  "data": [
    {"smiles": "C[C@H]1O[C@H](O[C@H]2[C@H](O)[C@@H](O)[C@@H](O[C@H]3[C@H](O)[C@@H](O)C(O)O[C@@H]3CO)O[C@@H]2CO)[C@H](O)[C@@H](O)[C@@H]1N[C@H]1C=C(CO)[C@@H](O)[C@H](O)[C@H]1O", "note": "(stereo partly drawn) [Acarbose]", "values": [
      {"measurement": "α-Amylase Inhibition (%)", "setting": "α-amylase enzyme", "value": "66.90 ± 0.10", "unit": "%"},
      {"measurement": "α-Glucosidase Inhibition (%)", "setting": "α-glucosidase enzyme", "value": "56.65 ± 0.10", "unit": "%"}
    ]},
    {"smiles": "O=C1O[C@H]([C@@H](O)CO)C(O)=C1O", "note": "[Ascorbic Acid]", "values": [
      {"measurement": "IC50 (µg/mL) ABTS", "setting": "[1]", "value": "3.80 ± 0.04", "unit": "µg/mL"},
      {"measurement": "Inhibition (%) ABTS", "setting": "[1]; at 100 µg/mL", "value": "70.25 ± 0.11", "unit": "%"},
      {"measurement": "IRP", "setting": "[2]", "value": "76.75 ± 0.13", "unit": "µg/mL"},
      {"measurement": "TAC (mg Gallic Acid/g)", "setting": "[3]", "value": "84.50 ± 0.13", "unit": "mg Gallic Acid/g"},
      {"measurement": "IC50 (µg/mL) NO", "setting": "[4]", "value": "5.51 ± 0.02", "unit": "µg/mL"},
      {"measurement": "Inhibition (%) NO", "setting": "[4]; at 100 µg/mL", "value": "60.75 ± 0.11", "unit": "%"},
      {"measurement": "IC50 (µg/mL) DPPH", "setting": "[5]", "value": "4.29 ± 0.03", "unit": "µg/mL"},
      {"measurement": "Inhibition (%) DPPH", "setting": "[5]; at 100 µg/mL", "value": "66.50 ± 0.11", "unit": "%"}
    ]},
    {"smiles": "COc1cccc2c1C(=O)c1c(O)c3c(c(O)c1C2=O)C[C@@](O)(C(=O)CO)C[C@@H]3O[C@H]1C[C@H](N)[C@H](O)[C@H](C)O1", "note": "[Doxorubicin]", "values": [
      {"measurement": "Bcl-2 (ng/mL) A549", "setting": "Bcl-2; treated A549 cells, DMSO control 12.58 ± 0.05", "value": "3.27 ± 0.01", "unit": "ng/mL"},
      {"measurement": "Bcl-2 (ng/mL) Caco-2", "setting": "Bcl-2; treated Caco-2 cells, DMSO control 5.74 ± 0.08", "value": "1.49 ± 0.02", "unit": "ng/mL"},
      {"measurement": "Bcl-2 (ng/mL) HepG-2", "setting": "Bcl-2; treated HepG-2 cells, DMSO control 11.15 ± 0.15", "value": "2.90 ± 0.04", "unit": "ng/mL"},
      {"measurement": "Caspase-3 (pg/mL) A549", "setting": "caspase-3; treated A549 cells, DMSO control 88.67 ± 0.12", "value": "341.39 ± 0.46", "unit": "pg/mL"},
      {"measurement": "Caspase-3 (pg/mL) Caco-2", "setting": "caspase-3; treated Caco-2 cells, DMSO control 94.81 ± 0.14", "value": "365.02 ± 0.55", "unit": "pg/mL"},
      {"measurement": "Caspase-3 (pg/mL) HepG-2", "setting": "caspase-3; treated HepG-2 cells, DMSO control 108.79 ± 0.85", "value": "418.84 ± 3.27", "unit": "pg/mL"},
      {"measurement": "IC50", "setting": "Caco-2 cells", "value": 33.3, "unit": "µg/mL"}
    ]},
    {"smiles": "CC(c1cc2ccccc2s1)N(O)C(N)=O", "note": "(stereo not drawn) [Zileuton]", "values": [
      {"measurement": "5-LOX (%)", "setting": "[6]", "value": "55.71 ± 0.11 (Zileuton) %"}
    ]}
  ]
}
